The test concerns the target nuclear receptor 4A1 (NR4A1) (Homo sapiens, UniProt P22736). The test is described as follows: tryptophan fluorescence quenching with the isolated LBD ([…]). The format is binding.

nuclear receptor 4A1 (NR4A1), sequence (P22736 360-598 limits assumed): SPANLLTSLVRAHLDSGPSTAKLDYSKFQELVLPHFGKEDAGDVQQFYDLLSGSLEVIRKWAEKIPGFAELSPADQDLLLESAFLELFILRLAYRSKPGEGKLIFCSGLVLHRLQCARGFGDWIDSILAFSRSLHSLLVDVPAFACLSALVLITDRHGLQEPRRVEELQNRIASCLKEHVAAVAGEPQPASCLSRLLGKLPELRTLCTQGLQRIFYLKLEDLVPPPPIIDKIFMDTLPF

As to `O=C1C[C@@H](c2ccc(O)cc2)Oc2cc(O)cc(O)c21` [naringenin], binding was put at a Kd of 4.5 µM.
